Source: BindingDB's records for doi:10.1021/acs.jmedchem.7b01231 (Dongguk University, 2017)

target: Hypoxia-inducible factor 1-alpha (Homo sapiens, UniProt Q16665); experiment: ChEBML_1681384
Description: Inhibition of HIF-1alpha in human HCT116 cells incubated for 12 hrs under hypoxic conditions by HRE dual-luciferase reporter gene assay

Hypoxia-inducible factor 1-alpha, sequence (Q16665 whole entry): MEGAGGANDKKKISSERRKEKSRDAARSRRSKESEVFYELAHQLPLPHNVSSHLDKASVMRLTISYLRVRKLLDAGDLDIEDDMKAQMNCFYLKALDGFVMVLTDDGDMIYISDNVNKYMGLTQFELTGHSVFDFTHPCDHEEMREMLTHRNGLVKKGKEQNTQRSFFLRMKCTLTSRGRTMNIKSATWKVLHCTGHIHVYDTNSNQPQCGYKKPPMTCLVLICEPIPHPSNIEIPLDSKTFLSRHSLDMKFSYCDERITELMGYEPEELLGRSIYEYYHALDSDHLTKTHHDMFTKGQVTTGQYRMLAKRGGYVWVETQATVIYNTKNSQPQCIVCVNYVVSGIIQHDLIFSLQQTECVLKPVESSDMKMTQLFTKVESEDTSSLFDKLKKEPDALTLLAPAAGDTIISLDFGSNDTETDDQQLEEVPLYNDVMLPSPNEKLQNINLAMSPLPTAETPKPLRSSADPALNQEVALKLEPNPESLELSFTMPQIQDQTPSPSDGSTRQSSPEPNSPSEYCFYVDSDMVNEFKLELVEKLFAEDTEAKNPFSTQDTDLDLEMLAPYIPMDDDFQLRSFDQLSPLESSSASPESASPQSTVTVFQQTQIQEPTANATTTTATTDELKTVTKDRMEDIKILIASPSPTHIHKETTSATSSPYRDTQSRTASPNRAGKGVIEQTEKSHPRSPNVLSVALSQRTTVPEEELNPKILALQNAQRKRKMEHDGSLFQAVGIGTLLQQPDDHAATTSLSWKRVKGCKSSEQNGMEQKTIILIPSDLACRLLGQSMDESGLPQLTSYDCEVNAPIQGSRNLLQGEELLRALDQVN

IC50 [µM]	Compound
> 40	CCCCCc1ccc(OCC(=O)Nc2cccc(C(=O)OC)c2)cc1
> 40	COC(=O)c1ccc(OC)c(NC(=O)COc2ccc(C(C)(C)CC(C)(C)C)cc2)c1
1.4	COC(=O)c1cccc(NC(=O)CCCOc2ccc(C(C)(C)CC(C)(C)C)cc2)c1
